These results are taken from ChEMBL document CHEMBL5465560, “Selectivity Literature for EUbOPEN Chemogenomic Library” (2024).

The target in assay [1] is T1, Ephrin type-B receptor 1 (Homo sapiens) (UniProt P54762).
T1 sequence (whole entry): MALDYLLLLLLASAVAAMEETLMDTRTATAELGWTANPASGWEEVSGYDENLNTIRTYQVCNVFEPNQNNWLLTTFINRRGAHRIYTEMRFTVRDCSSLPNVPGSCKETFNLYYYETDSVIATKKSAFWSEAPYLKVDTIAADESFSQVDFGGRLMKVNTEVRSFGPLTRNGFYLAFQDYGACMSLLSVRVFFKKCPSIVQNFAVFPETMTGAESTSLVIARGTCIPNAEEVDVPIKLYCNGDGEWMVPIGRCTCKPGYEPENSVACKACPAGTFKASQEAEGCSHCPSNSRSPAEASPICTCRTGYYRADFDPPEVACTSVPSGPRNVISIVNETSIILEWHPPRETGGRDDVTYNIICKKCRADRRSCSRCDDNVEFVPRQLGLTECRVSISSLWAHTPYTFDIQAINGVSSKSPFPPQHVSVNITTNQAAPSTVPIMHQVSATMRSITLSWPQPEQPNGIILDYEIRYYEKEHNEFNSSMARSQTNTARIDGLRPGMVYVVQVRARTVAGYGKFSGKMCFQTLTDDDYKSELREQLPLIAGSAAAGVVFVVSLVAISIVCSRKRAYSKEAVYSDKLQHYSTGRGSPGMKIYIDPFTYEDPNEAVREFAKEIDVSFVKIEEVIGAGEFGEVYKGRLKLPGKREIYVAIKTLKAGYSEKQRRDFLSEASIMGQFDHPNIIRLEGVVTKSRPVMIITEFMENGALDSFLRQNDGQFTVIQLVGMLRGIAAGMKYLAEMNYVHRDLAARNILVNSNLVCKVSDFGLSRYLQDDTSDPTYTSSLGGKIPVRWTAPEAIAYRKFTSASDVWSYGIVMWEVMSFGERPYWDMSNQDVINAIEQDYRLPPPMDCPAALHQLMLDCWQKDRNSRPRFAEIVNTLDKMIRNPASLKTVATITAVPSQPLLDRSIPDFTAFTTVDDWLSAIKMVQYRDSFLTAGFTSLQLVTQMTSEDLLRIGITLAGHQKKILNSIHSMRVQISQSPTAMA
The assay is described as follows: Selectivity interaction (Upstate Kinase Profiler service (Millipore)) EUB0000056c EPHB1. Particulars: at 1 µM.

Assay [2] addresses Atypical kinase COQ8A, mitochondrial (Homo sapiens, UniProt Q8NI60). Particulars: at 10 µM.
Assay [3] deals with T2, Atypical kinase COQ8B, mitochondrial (Homo sapiens) (UniProt Q96D53).
T2 sequence (whole entry): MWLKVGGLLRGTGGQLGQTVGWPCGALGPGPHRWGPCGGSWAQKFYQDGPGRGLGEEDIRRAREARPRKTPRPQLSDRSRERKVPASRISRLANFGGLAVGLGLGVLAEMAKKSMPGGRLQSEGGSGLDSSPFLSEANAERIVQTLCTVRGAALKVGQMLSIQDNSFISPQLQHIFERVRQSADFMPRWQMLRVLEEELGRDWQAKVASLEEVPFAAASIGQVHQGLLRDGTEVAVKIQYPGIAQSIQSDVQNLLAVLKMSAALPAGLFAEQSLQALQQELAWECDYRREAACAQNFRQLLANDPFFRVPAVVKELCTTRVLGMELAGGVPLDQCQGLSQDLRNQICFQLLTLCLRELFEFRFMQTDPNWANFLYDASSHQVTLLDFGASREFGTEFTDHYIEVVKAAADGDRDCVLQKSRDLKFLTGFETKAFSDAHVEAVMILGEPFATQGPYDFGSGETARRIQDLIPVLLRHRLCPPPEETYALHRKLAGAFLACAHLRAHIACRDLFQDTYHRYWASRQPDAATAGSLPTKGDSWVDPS
The assay is described as follows: Selectivity interaction (Ambit KINOMEscan and KiNATiv profiling in Jurkat cells) EUB0000090b ADCK4. It is filed as cell-based. Particulars: at 1 µM.

The target of assay [4] is Serine/threonine-protein kinase N1 (Homo sapiens, UniProt Q16512). The assay is described as follows: Selectivity interaction (KinomeScan (DiscoverX)) EUB0000229b PKN1. The settings on record: at 10 µM.
Serine/threonine-protein kinase N1, sequence (Q16512 2-942 limits assumed): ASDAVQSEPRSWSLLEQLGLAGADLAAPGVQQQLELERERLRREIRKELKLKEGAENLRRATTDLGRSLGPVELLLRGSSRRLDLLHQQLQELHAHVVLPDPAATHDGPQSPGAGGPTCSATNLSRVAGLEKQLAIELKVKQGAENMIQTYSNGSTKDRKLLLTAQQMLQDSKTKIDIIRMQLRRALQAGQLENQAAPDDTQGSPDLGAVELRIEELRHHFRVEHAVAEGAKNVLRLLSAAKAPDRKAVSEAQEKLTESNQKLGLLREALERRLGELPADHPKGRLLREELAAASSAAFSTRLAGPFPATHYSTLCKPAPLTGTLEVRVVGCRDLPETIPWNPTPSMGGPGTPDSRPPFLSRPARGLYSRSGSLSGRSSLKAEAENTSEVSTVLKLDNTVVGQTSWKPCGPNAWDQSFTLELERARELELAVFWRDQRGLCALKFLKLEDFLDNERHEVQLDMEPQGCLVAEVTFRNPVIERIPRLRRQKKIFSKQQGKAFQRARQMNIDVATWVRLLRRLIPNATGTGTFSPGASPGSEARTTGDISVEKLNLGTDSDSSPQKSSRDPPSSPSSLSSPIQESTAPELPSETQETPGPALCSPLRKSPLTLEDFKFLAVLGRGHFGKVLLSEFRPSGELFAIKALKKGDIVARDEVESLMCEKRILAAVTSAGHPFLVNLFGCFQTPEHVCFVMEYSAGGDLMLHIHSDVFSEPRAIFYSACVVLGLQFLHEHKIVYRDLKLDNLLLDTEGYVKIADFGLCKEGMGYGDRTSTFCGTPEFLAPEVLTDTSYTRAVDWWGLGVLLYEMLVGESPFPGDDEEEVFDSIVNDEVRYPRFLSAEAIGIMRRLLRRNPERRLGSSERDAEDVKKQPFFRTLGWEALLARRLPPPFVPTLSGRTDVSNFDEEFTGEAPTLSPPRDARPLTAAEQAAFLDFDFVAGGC
Assay [5] deals with Serine/threonine-protein kinase PAK 3 (Homo sapiens) (UniProt O75914). The experiment in a line: Selectivity interaction (KinomeScan (DiscoverX)) EUB0000595a PAK3. Particulars: at 10 µM.
Serine/threonine-protein kinase PAK 3 (Homo sapiens), sequence (O75914 whole entry, looked up): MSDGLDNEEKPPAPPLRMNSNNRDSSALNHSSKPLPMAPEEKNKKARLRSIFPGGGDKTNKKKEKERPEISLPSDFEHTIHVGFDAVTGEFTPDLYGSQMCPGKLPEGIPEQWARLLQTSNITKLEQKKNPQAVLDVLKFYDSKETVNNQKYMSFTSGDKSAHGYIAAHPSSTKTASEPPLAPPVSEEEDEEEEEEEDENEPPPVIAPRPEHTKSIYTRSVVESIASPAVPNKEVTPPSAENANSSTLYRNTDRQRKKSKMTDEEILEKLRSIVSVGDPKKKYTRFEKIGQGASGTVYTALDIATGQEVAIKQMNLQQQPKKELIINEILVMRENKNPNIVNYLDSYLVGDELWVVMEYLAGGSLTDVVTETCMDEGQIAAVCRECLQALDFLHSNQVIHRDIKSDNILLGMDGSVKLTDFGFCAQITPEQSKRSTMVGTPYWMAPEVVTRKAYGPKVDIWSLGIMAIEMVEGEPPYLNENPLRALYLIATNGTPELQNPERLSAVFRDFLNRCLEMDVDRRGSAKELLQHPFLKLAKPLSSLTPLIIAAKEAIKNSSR
For assay [6], the target named is T3, Phosphatidylinositol 5-phosphate 4-kinase type-2 beta (Homo sapiens) (UniProt P78356).
T3 sequence (whole entry): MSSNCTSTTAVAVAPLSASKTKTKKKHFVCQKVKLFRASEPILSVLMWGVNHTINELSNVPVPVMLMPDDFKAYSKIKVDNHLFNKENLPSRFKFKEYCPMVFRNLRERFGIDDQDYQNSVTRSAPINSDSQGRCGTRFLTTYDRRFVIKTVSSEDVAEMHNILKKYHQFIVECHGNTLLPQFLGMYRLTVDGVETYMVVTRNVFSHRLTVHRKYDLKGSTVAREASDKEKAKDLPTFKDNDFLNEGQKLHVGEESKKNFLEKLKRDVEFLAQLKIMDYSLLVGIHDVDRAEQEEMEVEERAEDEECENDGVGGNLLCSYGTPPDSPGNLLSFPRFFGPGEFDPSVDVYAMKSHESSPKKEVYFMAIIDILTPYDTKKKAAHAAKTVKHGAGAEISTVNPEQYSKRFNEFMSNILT
The assay is described as follows: Selectivity interaction (Kinase panel (KiNativ target engagement assay in Jurkat cells)) EUB0001635a PIP4K2B. It is filed as cell-based. Particulars: Selectivity number of off-targets 0.0, Selectivity number of targets 233.0, Source Knowledge https://www.sciencedirect.com/science/article/pii/S2451945619300674?via%3Dihub, at 1 µM.

For assay [7], the target named is T4, Mitogen-activated protein kinase kinase kinase 7 (Homo sapiens) (UniProt O43318).
T4 sequence (whole entry): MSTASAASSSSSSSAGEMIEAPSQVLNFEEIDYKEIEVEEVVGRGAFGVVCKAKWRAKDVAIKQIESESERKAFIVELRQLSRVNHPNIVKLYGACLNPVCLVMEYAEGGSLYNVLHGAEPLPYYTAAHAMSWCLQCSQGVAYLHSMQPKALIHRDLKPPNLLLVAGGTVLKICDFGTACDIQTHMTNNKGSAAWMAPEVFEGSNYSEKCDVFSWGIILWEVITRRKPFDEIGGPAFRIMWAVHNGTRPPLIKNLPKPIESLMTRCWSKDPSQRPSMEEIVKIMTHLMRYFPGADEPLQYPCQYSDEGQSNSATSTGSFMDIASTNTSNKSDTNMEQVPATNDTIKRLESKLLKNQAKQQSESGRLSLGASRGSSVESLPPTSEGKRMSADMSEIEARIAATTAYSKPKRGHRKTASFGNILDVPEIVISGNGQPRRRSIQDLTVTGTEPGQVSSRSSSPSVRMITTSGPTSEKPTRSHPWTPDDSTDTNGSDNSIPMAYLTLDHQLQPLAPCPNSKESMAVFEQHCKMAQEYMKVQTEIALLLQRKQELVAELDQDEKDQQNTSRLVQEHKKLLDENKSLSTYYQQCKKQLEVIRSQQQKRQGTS
The experiment in a line: Selectivity interaction (KinomeScan (DiscoverX)) EUB0000618a MAP3K7. The settings on record: at 10 µM.

Atypical kinase COQ8A, mitochondrial, sequence (Q8NI60 163-647 limits assumed): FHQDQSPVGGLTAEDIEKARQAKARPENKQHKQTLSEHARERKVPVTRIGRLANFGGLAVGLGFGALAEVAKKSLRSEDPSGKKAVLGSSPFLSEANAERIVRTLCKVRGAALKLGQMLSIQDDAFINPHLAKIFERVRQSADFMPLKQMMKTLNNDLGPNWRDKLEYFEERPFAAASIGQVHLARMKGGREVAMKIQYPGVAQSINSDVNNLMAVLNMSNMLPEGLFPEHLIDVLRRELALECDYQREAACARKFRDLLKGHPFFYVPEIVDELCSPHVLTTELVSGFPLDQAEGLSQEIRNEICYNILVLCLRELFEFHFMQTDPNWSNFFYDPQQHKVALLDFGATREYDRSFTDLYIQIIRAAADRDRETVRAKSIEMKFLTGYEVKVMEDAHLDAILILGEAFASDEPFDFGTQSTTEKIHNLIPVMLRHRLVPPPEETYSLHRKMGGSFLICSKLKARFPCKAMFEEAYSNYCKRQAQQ

`Cc1ccc(-c2ccc3c(ccc4sc5c(c43)NC[C@@H](C)NC5=O)n2)cn1` registered a % of inhibition in assay [1] of 9%. Regarding `Cc1cc([C@@H](C)Nc2ccccc2C(=O)O)c2nc(N3CCOCC3)cc(=O)n2c1` [AZD-6482], in assay [2], the % of control was found to be 86%. Take `CN(C)C/C=C/C(=O)Nc1ccc(C(=O)N2CCCC(Nc3ncc(Cl)c(-c4c[nH]c5ccccc45)n3)C2)cc1` (configuration not stated): the % of control in assay [3] worked out at 69%. In turn, `COc1cc(N(C)c2ccnc3ccc(C(F)(F)F)cc23)cc(OC)c1OC` gave a % binding in assay [4] of 81%. Turning to `COCC(=O)NC/C=C/c1ccc2ncnc(Nc3ccc(Oc4ccc(C)nc4)c(C)c3)c2c1` [CP-724714], the % of control in assay [5] turned out to be 70%. On to `C=CC(=O)Nc1ccc(C(=O)Nc2[nH]nc3c2CN(C(=O)N[C@H](CN(C)C)c2ccccc2)C3(C)C)cc1`, for which the % of engagement in assay [6] is -4.5%. `O[C@H]1CC[C@H](Nc2ncc3nc(Nc4c(F)cc(F)cc4F)n([C@H]4CCOC4)c3n2)CC1`: the % of control in assay [7] was 99%.
